In patent publication US7605005B2, “Method of screening for agents that modulate Tysnd1 level or activity in a cell” (Riken, priority 2005, dated 2009):

How the values were obtained:
[1] = biological target: T1, IDE (Homo sapiens, UniProt P14735); settings: cited from earlier work
T1 sequence (P14735 1-1019): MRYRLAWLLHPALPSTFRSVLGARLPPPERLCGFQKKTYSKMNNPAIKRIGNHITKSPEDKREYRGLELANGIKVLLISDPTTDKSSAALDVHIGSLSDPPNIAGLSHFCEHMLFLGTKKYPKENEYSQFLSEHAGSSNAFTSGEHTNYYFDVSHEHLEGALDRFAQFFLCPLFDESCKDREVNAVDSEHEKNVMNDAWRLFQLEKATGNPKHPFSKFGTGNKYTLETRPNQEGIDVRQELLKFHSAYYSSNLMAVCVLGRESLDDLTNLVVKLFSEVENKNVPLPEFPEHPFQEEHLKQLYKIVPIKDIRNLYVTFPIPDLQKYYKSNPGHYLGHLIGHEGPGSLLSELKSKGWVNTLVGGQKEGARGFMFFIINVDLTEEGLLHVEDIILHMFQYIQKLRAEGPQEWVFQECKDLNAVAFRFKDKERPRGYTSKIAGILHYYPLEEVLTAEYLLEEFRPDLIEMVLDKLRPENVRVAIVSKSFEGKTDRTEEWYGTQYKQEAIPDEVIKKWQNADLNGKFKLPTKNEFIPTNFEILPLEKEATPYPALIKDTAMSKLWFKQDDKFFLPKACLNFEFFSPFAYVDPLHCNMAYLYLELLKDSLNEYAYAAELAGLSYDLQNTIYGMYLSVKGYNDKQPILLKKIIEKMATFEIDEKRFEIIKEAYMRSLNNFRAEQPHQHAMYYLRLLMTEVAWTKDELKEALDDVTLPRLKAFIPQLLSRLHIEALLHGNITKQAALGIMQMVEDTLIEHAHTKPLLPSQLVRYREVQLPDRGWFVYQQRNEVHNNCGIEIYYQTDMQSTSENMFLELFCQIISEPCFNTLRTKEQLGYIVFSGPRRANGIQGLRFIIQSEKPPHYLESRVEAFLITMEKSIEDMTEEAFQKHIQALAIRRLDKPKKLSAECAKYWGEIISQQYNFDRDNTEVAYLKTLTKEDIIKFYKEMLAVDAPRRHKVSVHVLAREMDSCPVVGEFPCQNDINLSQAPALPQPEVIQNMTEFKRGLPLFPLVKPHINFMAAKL

[2] = test system: Tysnd1; test: Protease inhibition assay: processing of Acaa1 and Acox1 by recombinant Tysnd1; format: biochemical, mouse; settings: preincubated 30 min at 25° C., then 12 h at 37° C., substrates Acaa1 and Acox1
[3] = test system: fatty acid oxidation; settings: reference 80; cited from earlier work

For CC(C)C[C@H](NC(=O)[C@H]1O[C@@H]1C(=O)O)C(=O)NCCCCN=C(N)N (relative stereo) [E64, trans-epoxysuccinyl-1-leucylamido-(4-guanidino) butane], the “Inhibition of peroxisomal protease IDE” value [1] is given as “not” and the “Tysnd1 processing activity in the presence of protease inhibitor” value ([2]; inhibitor 20 μM) is given as “resistant”.

In the case of COc1ccccc1OCC(O)CN1CCN(CC(=O)Nc2c(C)cccc2C)CC1 (stereo not drawn) [ranolazine], the Fatty acid oxidation [3] is listed as “inhibit”.

For CCN1C(=O)C=CC1=O [NEM, N-ethylmaleimide], the “Inhibition of peroxisomal protease IDE” value [1] is given as “inhibited” and the “Tysnd1 processing activity in the presence of protease inhibitor” value ([2]; inhibitor 1 mM) is given as “completely abolished”.

For COc1ccc(CN2CCNCC2)c(OC)c1OC [trimetazidine], the Fatty acid oxidation [3] is given as “inhibit”.

In the case of CC(=O)N[C@@H](CC(C)C)C(=O)N[C@@H](CC(C)C)C(=O)N[C@H](C=O)CCCNC(=N)N [leupeptin], the “Inhibition of peroxisomal protease IDE” value [1] is given as “not” and the “Tysnd1 processing activity in the presence of protease inhibitor” value ([2]; inhibitor 10 μM) is given as “resistant”.

With c1cnc2c(c1)ccc1cccnc12 [1,10-phenanthroline] the “Tysnd1 processing activity in the presence of protease inhibitor” value ([2]; inhibitor 1 mM) was “Partial inhibition”.
